Measured values as given in patent publication US20220324770A1, “NITRIFICATION INHIBITORS” (The University of Melbourne, priority 2019, published 2022).

Legend:
[1] = system: Horsham soil; experiment: Soil microcosm incubation (nitrification of applied ammonium), Horsham soil; details: for rate of NOx−—N accumulation: 28-day incubation
Method: (§1) The soil used in this study was collected from four different locations in Victoria, Australia: (i) a wheat cropping soil from Horsham (36° 45′S, 142° 07′ E), (ii) a rotational cropping soil from Dahlen (36° 37′S, 142° 09′ E), (iii) a vegetable growing soil from Clyde (38° 08′S, 145° 20′ E), and (iv) a pasture soil from Terang (38° 15′S, 142° 52′E). In addition, a sugarcane cropping soil from South Johnstone in northern Queensland (17° 34′S, 145° 57′ E) was also studied. The water content of the soil was calculated before commencing each experiment, from samples that were oven-dried to constant weight. The soil's water-filled pore space (WFPS) was in the range 52%-61%, which is within the recommended 50-70% range for microbial activity due to oxygen and nutrient availability (Fichtner, T., et al., Applied Sciences, 2019, 9, 496).
(§2) Soil microcosm incubations were carried out in 250 ml polypropylene specimen containers (Sarstedt, Germany), containing 18.24 g oven dry-weight equivalent of soil. Microcosms were re-wetted and pre-incubated at the test temperature for seven days to revive soil microbial activity. Following pre-incubation, the remaining volume to reach the desired water-filled pore spaces (WFPS %) was applied as one of the following treatment solutions; (NH4)2SO4(Control), (NH4)2SO4+DMPP, or (NH4)2SO4+one of Compounds 1-23. Each treatment was applied in triplicate per soil type, so that n=3 at each time point.
(§3) Treatment solutions were prepared such that each microcosm received (NH4)2SO4 at a rate of 100 mg N per kg soil, Compounds 1-23 at 10 mol % of applied N, or DMPP at one of 1.5, 3.6 or 10 mol % of applied N, referred to as L-DMPP, M-DMPP or H-DMPP respectively.
(§4) The microcosms were incubated for 0, 3, 7, 14, 21 or 28 days, where day 0 samples were extracted following 1-hour incubation post-treatment. Soil microcosms were aerated and moisture levels were replenished based on weight loss every few days throughout the incubation period.
(§5) At the end of each incubation period, soil microcosms were destructively sampled by treatment with 2M KCl (100 mL). After shaking for 1 hour, soil-KCl solutions were filtered (Whatman 42) before storing the filtrates at −20° C. until the conclusion of the experiment. All KCl extracts were then analysed by Segmented Flow Analysis (San++, Skalar, Breda, The Netherlands) for the concentration of nitrogen from ammonium (NH4^+—N) and nitrogen from NO3 and NO2 (NOx^−—N) after appropriate dilutions. Results are reported as the mean of three replicates, errors reported are standard errors of the mean.
(§6) Nitrification calculations were performed as previously reported (Aulakh, M., et al., Biology and Fertility of Soils 2001, 33, 258-263; Mahmood, T., et al., Soil Research 2017, 55, 715-722) without correction for the initial baseline concentrations of NH4^+—N or NO3^− N in the untreated soil. For each treatment nitrified NH4^+—N (%) was calculated according to eqn. 1:
(§7) where [NH4^+—N]0 is the NH4^+—N concentration (in mg N kg^−1 soil) of the soil on day 0 and [NH4^+—N]t is the NH4^+—N concentration (in mg N kg^−1 soil) of the soil at a given time point t.
(§8) NOx^−—N accumulation rates (mg NOx^−—N/kg soil/day) over the 28-day incubation experiments were calculated for each treatment as in the following (eqn. 2):
(§9) [NOx^−—N]t=0 and [NOx^−—N]t=28 are the combined concentrations of nitrite (NO2) and nitrate (NO3) in the soil (in mg N kg^−1 soil) on day 0 and day 28, respectively.

[2] = system: Dahlen soil; experiment: Soil microcosm incubation (nitrification of applied ammonium), Dahlen soil; details: for NOx−—N accumulation rate / NOx−—N accumulation rate: effect of temperature (25° C. vs 35° C.): 28-day incubation; for Nitrified NH4+—N (%) Day 3 / Nitrified NH4+—N (%) Day 7 / Nitrified NH4+—N (%) Day 14 / Nitrified NH4+—N (%) Day 21 / Nitrified NH4+—N (%) Day 28: 10 mol %
Method: as §1, §2, §3, §4, §5, §6, §7, §8, §9

[3] = Horsham soil pH 8.8, 25° C., inhibitors 10 mol % of applied N
[4] = Horsham soil pH 8.8, 25° C., 10 mol %
[5] = Horsham soil pH 8.8, 35° C., 10 mol %
[6] = Horsham soil, 25° C., after 28 days
[7] = Dahlen soil, 25° C., after 28 days
[8] = Dahlen soil, 35° C., after 28 days
[9] = Table 4, Dahlen soil pH 7.3, 25° C.
[10] = Table 4, Dahlen soil pH 7.3, 35° C.
[11] = Table 5, Dahlen soil pH 7.3, 25° C.
[12] = Table 5, Dahlen soil pH 7.3, 35° C.

## C#CCCn1cc(CCC)nn1 [Compound 17, 1-(3-butyn-1-yl)-4-propyl-1H-1,2,3-triazole]
[1]; [3]
  Nitrified NH4+—N (%) Day 3: 13.5 ± 4.7%
[1]; [4]
  Nitrified NH4+—N (%) Day 7: 30.6 ± 5.5%
  Nitrified NH4+—N (%) Day 14: 35.1 ± 5.1%
  Nitrified NH4+—N (%) Day 21: 43.9 ± 5.7%
  Nitrified NH4+—N (%) Day 28: 65.8 ± 5.2%
[1]; [5]
  Nitrified NH4+—N (%) Day 3: −0.8 ± 3.4%
  Nitrified NH4+—N (%) Day 7: 8.5 ± 2.8%
  Nitrified NH4+—N (%) Day 14: 37.2 ± 2.3%
  Nitrified NH4+—N (%) Day 21: 75.7 ± 5.4%
  Nitrified NH4+—N (%) Day 28: 76.2 ± 2.1%
[1]; [6]
  retaining NH4+ vs uninhibited control treatment: performed statistically better
[1]; Horsham soil, 35° C.
  nitrification rates vs uninhibited control treatment: lower nitrification rates than the uninhibited control treatment
[2]; Dahlen soil, 25° C.
  NOx−—N accumulation rate: 4.7 mg NOx−—N/kg soil/day
[2]; [7]
  retaining NH4+—N vs uninhibited control treatment and DMPP: performed statistically better
[2]; Dahlen soil
  NOx−—N accumulation rate: effect of temperature (25° C. vs 35° C.): largest reduction in the accumulation rate
[2]; Dahlen soil, 35° C.
  NOx−—N accumulation rate: 2.4 mg NOx−—N/kg soil/day
[2]; [8]
  ammonia consumption: 38%
  retaining NH4+ vs both DMPP treatment and control treatment: performed statistically better
[2]; [9]
  Nitrified NH4+—N (%) Day 3: 3.0 ± 1.3%
  Nitrified NH4+—N (%) Day 7: 10.4 ± 3.6%
  Nitrified NH4+—N (%) Day 14: 12.1 ± 3.2%
  Nitrified NH4+—N (%) Day 21: 22.2 ± 5.0%
  Nitrified NH4+—N (%) Day 28: 36.4 ± 6.8%
[2]; [10]
  Nitrified NH4+—N (%) Day 3: 6.3 ± 2.2%
  Nitrified NH4+—N (%) Day 7: 8.8 ± 1.9%
  Nitrified NH4+—N (%) Day 14: 17.7 ± 2.6%
  Nitrified NH4+—N (%) Day 21: 38.0 ± 2.8%
  Nitrified NH4+—N (%) Day 28: 37.6 ± 3.1%

## CCCCn1cc(CCC)nn1 [Compound 13, 1-butyl-4-propyl-1H-1,2,3-triazole]
[1]; [3]
  Nitrified NH4+—N (%) Day 3: 17.7 ± 3.9%
[1]; [4]
  Nitrified NH4+—N (%) Day 7: 23.4 ± 5.4%
  Nitrified NH4+—N (%) Day 14: 40.0 ± 4.3%
  Nitrified NH4+—N (%) Day 21: 47.2 ± 4.3%
  Nitrified NH4+—N (%) Day 28: 72.2 ± 4.8%
[1]; [5]
  Nitrified NH4+—N (%) Day 3: 3.5 ± 6.4%
  Nitrified NH4+—N (%) Day 7: 18.7 ± 5.5%
  Nitrified NH4+—N (%) Day 14: 48.0 ± 5.3%
  Nitrified NH4+—N (%) Day 21: 59.3 ± 10.3%
  Nitrified NH4+—N (%) Day 28: 61.2 ± 14.2%
[1]; Horsham soil, 25° C.
  rate of NOx−—N accumulation: 2.8 mg NOx−—N/kg soil/day
[1]; [6]
  retaining NH4+ vs uninhibited control treatment: performed statistically better
[1]; Horsham soil, 35° C.
  nitrification rates vs uninhibited control treatment: lower nitrification rates than the uninhibited control treatment
  retaining NH4+ and preventing NOx production (statistics vs control): performed statistically better
  rate of NOx−—N accumulation: 2.8 mg NOx−—N/kg soil/day
[1]; Horsham soil, 35° C., after 28 days
  NH4+—N consumption: 61%
[2]; Dahlen soil, 25° C.
  NOx−—N accumulation rate: 2.5 mg NOx−—N/kg soil/day
[2]; [7]
  retaining NH4+—N vs uninhibited control treatment and DMPP: performed statistically better
[2]; Dahlen soil
  NOx−—N accumulation rate: effect of temperature (25° C. vs 35° C.): least affected by the temperature change
[2]; Dahlen soil, 35° C.
  NOx−—N accumulation rate: 2.4 mg NOx−—N/kg soil/day
[2]; [8]
  retaining NH4+ vs both DMPP treatment and control treatment: performed statistically better
[2]; [9]
  Nitrified NH4+—N (%) Day 3: 10.6 ± 3.7%
  Nitrified NH4+—N (%) Day 7: 22.2 ± 50.2%
  Nitrified NH4+—N (%) Day 14: 24.9 ± 59.3%
  Nitrified NH4+—N (%) Day 21: 32.6 ± 2.4%
  Nitrified NH4+—N (%) Day 28: 41.5 ± 1.2%
[2]; [10]
  Nitrified NH4+—N (%) Day 3: −1.2 ± 1.1%
  Nitrified NH4+—N (%) Day 7: 3.5 ± 1.3%
  Nitrified NH4+—N (%) Day 14: 9.2 ± 1.1%
  Nitrified NH4+—N (%) Day 21: 34.2 ± 2.4%
  Nitrified NH4+—N (%) Day 28: 33.6 ± 1.3%

## C=CCOC(=O)Cn1cc(CCC)nn1 [Compound 20, prop-2-en-1-yl 2-(4-propyl-1H-1,2,3-triazol-1-yl)-acetate]
[2]; Dahlen soil, 25° C., Table 5 test
  retaining NH4+—N levels by day 28 vs fertilised control (and DMPP): performed statistically better than the fertilised control
[2]; Dahlen soil, 35° C., Table 5 test
  retaining NH4+—N vs (NH4)2SO4-treated control by day 28: remain highly effective
[2]; Table 5 (further comparative test), Dahlen soil pH 7.3, 25° C.
  Nitrified NH4+—N (%) Day 3: 1.9 ± 1.3%
[2]; [11]
  Nitrified NH4+—N (%) Day 7: 8.0 ± 0.6%
  Nitrified NH4+—N (%) Day 14: 15.2 ± 1.2%
  Nitrified NH4+—N (%) Day 21: 26.0 ± 2.1%
  Nitrified NH4+—N (%) Day 28: 31.8 ± 4.5%
[2]; [12]
  Nitrified NH4+—N (%) Day 3: 16.6 ± 4.5%
  Nitrified NH4+—N (%) Day 7: 5.0 ± 4.3%
  Nitrified NH4+—N (%) Day 14: 17.7 ± 3.8%
  Nitrified NH4+—N (%) Day 21: 17.1 ± 3.6%
  Nitrified NH4+—N (%) Day 28: 45.6 ± 8.3%
